Data as given in PubChem BioAssay (NCI).
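96-well plates; 48 h exposure; 5 concentrations. Endpoints by linear interpolation between flanking doses. Not reached: highest tested concentration assigned. TGI: total growth inhibition.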

Legend:
Test in all cases: growth of human tumour cells (NCI), 48 h
M14 melanoma = tested on: M14 melanoma
SN12C renal = tested on: SN12C renal
NCI-H522 lung = tested on: NCI-H522 lung
HCT-116 colon = tested on: HCT-116 colon
NCI-H23 lung = tested on: NCI-H23 lung
HT29 colon = tested on: HT29 colon
SF-268 CNS = tested on: SF-268 CNS
IGROV1 ovarian = tested on: IGROV1 ovarian
NCI-H226 lung = tested on: NCI-H226 lung
MOLT-4 leukemia = tested on: MOLT-4 leukemia
UACC-62 melanoma = tested on: UACC-62 melanoma
SF-539 CNS = tested on: SF-539 CNS
OVCAR-8 ovarian = tested on: OVCAR-8 ovarian
SR leukemia = tested on: SR leukemia
SNB-19 CNS = tested on: SNB-19 CNS
SW-620 colon = tested on: SW-620 colon
SK-OV-3 ovarian = tested on: SK-OV-3 ovarian
UO-31 renal = tested on: UO-31 renal
NCI-H460 lung = tested on: NCI-H460 lung
LOX IMVI melanoma = tested on: LOX IMVI melanoma

SMILES	TGI (M14 melanoma)	TGI (SN12C renal)	TGI (NCI-H522 lung)	TGI (HCT-116 colon)	TGI (NCI-H23 lung)	TGI (HT29 colon)	TGI (SF-268 CNS)	TGI (IGROV1 ovarian)	TGI (NCI-H226 lung)	TGI (MOLT-4 leukemia)	TGI (UACC-62 melanoma)	TGI (SF-539 CNS)	TGI (OVCAR-8 ovarian)	TGI (SR leukemia)	TGI (SNB-19 CNS)	TGI (SW-620 colon)	TGI (SK-OV-3 ovarian)	TGI (UO-31 renal)	TGI (NCI-H460 lung)	TGI (LOX IMVI melanoma)
CCOc1ccc(C(C)c2cc3c(cc2OC)OCO3)cc1 (stereo not given)	45 µM	40.7 µM	0.166 µM	4.82 µM	> 100 µM	12.4 µM	45.5 µM	> 100 µM	0.752 µM	15 µM	> 100 µM	0.631 µM	9.59 µM	0.442 µM	> 100 µM	> 100 µM	> 100 µM	> 100 µM	> 100 µM	> 100 µM
CN1Cc2cc(O)c(O)cc2C(O)C1 (stereo not given)	> 100 µM	> 100 µM	> 100 µM	> 100 µM	> 100 µM	> 100 µM	> 100 µM	> 100 µM	> 100 µM	> 100 µM	> 100 µM	> 100 µM	> 100 µM	> 100 µM	> 100 µM	> 100 µM	> 100 µM	> 100 µM	> 100 µM	> 100 µM
